Reference: paper PMC12207910 (European journal of pharmaceutical sciences : official …, 2024)
Converted amounts (≈) assume the structure as drawn. Read-outs that look alike come from different tables or passages of the source.

Columns and labels:
C. albicans (ATCC 60193) [1] = test: microbe, parasite or virus in culture; type: cell-based; details: Candida albicans
C. albicans (ATCC 60193) [2] = test: microbe, parasite or virus in culture; details: Candida albicans, ATCC60193, read-out: MIC C. albicans (ATCC 60193)
C. krusii (ATCC 6258) = test: organism not typed; details: read-out: MIC C. krusii (ATCC 6258)
C. albicans (ATCC 60193) [3] = test: Kill kinetics assay; type: cell-based; details: MIC and 4×MIC, compared to 3b and 4b
C. albicans (ATCC 10132) = test: microbe, parasite or virus in culture; details: Candida albicans, ATCC10132, read-out: MIC C. albicans (ATCC 10132)
[4] = test system: Staphylococcus pneumoniae (ATCC 49619); test: microbe, parasite or virus in culture; details: ATCC49619, read-out: MIC Staphylococcus pneumoniae (ATCC 49619)
[5] = test system: Enterococcus faecium (ATCC 27270); test: microbe, parasite or virus in culture; details: ATCC27270, read-out: MIC Enterococcus faecium (ATCC 27270)

Row | SMILES | MIC (C. albicans (ATCC 60193) [1]; ATCC60193, read-out: MIC CaCl2) [µg/mL] | MIC (C. albicans (ATCC 60193) [1]; ATCC60193, read-out: MIC Control) [µg/mL] | MIC (C. albicans (ATCC 60193) [1]; ATCC60193, read-out: MIC FBS (25%)) [µg/mL] | MIC (C. albicans (ATCC 60193) [1]; ATCC60193, read-out: MIC KCl) [µg/mL] | MIC (C. albicans (ATCC 60193) [1]; ATCC60193, read-out: MIC MgCl2) [µg/mL] | MIC (C. albicans (ATCC 60193) [1]; ATCC60193, read-out: MIC NH4Cl) [µg/mL] | MIC (C. albicans (ATCC 60193) [1]; ATCC60193, read-out: MIC NaCl) [µg/mL] | MIC (C. albicans (ATCC 60193) [2]) [µg/mL] | MIC (C. krusii (ATCC 6258)) [µg/mL] | fungicidal effect in kill kinetics (C. albicans (ATCC 60193) [3]) | MIC (C. albicans (ATCC 10132)) [µg/mL] | MIC [4] [µg/mL] | MIC [5] [µg/mL]
1 | OC(Cn1cncn1)(Cn1cncn1)c1ccc(F)cc1F [Fluconazole] | 1.5 (≈ 4.9 µM) | 1.5 (≈ 4.9 µM) | 1.5 (≈ 4.9 µM) | 1.5 (≈ 4.9 µM) | 1.5 (≈ 4.9 µM) | 1.5 (≈ 4.9 µM) | 1.5 (≈ 4.9 µM) | 1.5 (≈ 4.9 µM) | 0.7 (≈ 2.29 µM) | mild fungicidal effect | 0.7 (≈ 2.29 µM) | – | –
2 | CN[C@H](CC(C)C)C(=O)N[C@H]1C(=O)N[C@@H](CC(N)=O)C(=O)N[C@H]2C(=O)N[C@H]3C(=O)N[C@H](C(=O)N[C@H](C(=O)O)c4cc(O)cc(O)c4-c4cc3ccc4O)[C@H](O)c3ccc(c(Cl)c3)Oc3cc2cc(c3O[C@@H]2O[C@H](CO)[C@@H](O)[C@H](O)[C@H]2O[C@H]2C[C@](C)(N)[C@H](O)[C@H](C)O2)Oc2ccc(cc2Cl)[C@H]1O [Vancomycin] | – | – | – | – | – | – | – | – | – | – | – | 3.1 (≈ 2.14 µM) | 1.5 (≈ 1.04 µM)
